Measured values taken from patent publication US6710081B1, “Erection insufficiency remedies” (priority 1999, dated 2004).

Legend:
[1] = tested on: rat; settings: in vivo, iv
Description: It has been confirmed that the compounds of the present invention of formula (I) have sufficiently low toxicity and are sufficiently safe for use as pharmaceutical preparations. For example, the maximal tolerated dose of methyl ester of the compound of formula (I-1) was 30 mg/kg weight or more for rat intravenous administration.

[2] = tested on: corpus cavernosum penis; experiment: Intracavernosal pressure increasing activity; type: in vivo, beagle; settings: for Intracavernosal pressure increase: anesthetized beagle, intracavernosal injection, maximum up to 4 minutes from administration
Text: Under anesthesia with thiopental, cannulae were indwelled in left cephalic vein (for infusion) and left femoral artery (for measuring blood pressure and heart rate) of a beagle. The epidermis was dissected from the top of penis to scrotum with an electrocautery to expose the albuguinea on the surface of the cavernous body. A cannula with a needle for measuring the inner pressure and administering a chemical was inserted into the cavernous body and (11α,15α,13E)-9-oxo-11,15-dihydroxy-16-(3-methoxy-methylphenyl)-17,18,19,20-tetranor-5-thiaprost-13-enoic acid methyl ester (methyl ester of the compound of formula (I-1) above, hereinafter abbreviated as methyl ester form) was administered in four kinds of dosage, i.e., 0.2, 2.0, 20, and 200 ng. As controls, 20 ng of PGE1 and physiological saline were used.
Through the cannula inserted into the corpus cavernosum penis, the chemical was injected in amounts of 100 μl and was followed by 300 μl saline injection. A difference between the maximum intra pressures up to 4 minutes from the administration and the intra pressure at the time of administration was taken as the value of intracavernosal pressure increase.

## COCc1cccc(C[C@H](O)/C=C/[C@H]2[C@H](O)CC(=O)[C@@H]2CCSCCCC(=O)OC)c1 [Methyl ester form, (11α,15α,13E)-9-oxo-11,15-dihydroxy-16-(3-methoxy-methylphenyl)-17,18,19,20-tetranor-5-thiaprost-13-enoic acid methyl ester]
[1]
  maximal tolerated dose: ≥ 30 mg/kg weight
[2]; dose 0.2 ng/100 μl
  Intracavernosal pressure increase: 4.3 ± 1.9 mmHg
[2]; dose 2.0 ng/100 μl
  Intracavernosal pressure increase: 12.7 ± 8.7 mmHg
[2]; dose 20 ng/100 μl
  Intracavernosal pressure increase: 28.3 ± 12.3 mmHg
[2]; dose 200 ng/100 μl
  Intracavernosal pressure increase: 40.7 ± 16.6 mmHg
[2]; beagle, 0.2 to 200 ng intracavernosal
  Effect on intracavernosal pressure (in words): increased the intracavernosal pressure dose-dependently

## CCCCC[C@H](O)/C=C/[C@H]1[C@H](O)CC(=O)[C@@H]1CCCCCCC(=O)O [PGE1, prostaglandin E1, reference compound]
[2]; dose 20 ng/100 μl
  Intracavernosal pressure increase: 29.0 ± 12.5 mmHg
